Assay results: PMC6332220, “Synthesis, Characterization and Biological Evaluation of Some Quinoxaline Derivatives: A Promising and Potent New Class of Antitumor and Antimicrobial Agents” (Molecules, 2015)
In brackets after ≈: the same amount, converted by molar mass.

How the values were obtained:
Aspergillus fumigatus = assay: Disk diffusion, Aspergillus fumigatus; type: cell-based; details: Fungi, 8.0 mm disks, 10 μL
Method: (§1) The disk diffusion method was used for determination of the antimicrobial activity using ampicillin, gentamicin and amphotericin B as reference drugs. The results were recorded for each compounds as the average diameter as inhibition zones (IZ) of bacterial or fungal growth around the discs in mm as shown in Table 2.
(§2) Antimicrobial activities were carried out against highly pathogenic strains; three strains of Gram positive bacteria (Bacillus subtilis, Staphylococcus aureus and Streptococcus faecalis), four strains of Gram negative bacteria (Escherichia coli, Neisseria gonorrhoeae, Pseudomonas aeruginosa and Salmonella typhimurium) and three fungi strains (Aspergillus flavus, Aspergillus fumigatus and Candida albicans) isolated from primary agar plates. Antimicrobial activity of the tested samples was determined using a modified Kriby-Bauer disk diffusion method. Briefly, 100 µL of the test bacteria/fungi were grown in 10 mL of fresh media until they reached a count approximately 10^8 cells/mL for bacteria or 10^5 cells/mL for fungi. 100 µL of microbial suspension was spread onto agar plates corresponding to the broth in which they were maintained. The inoculated plates of bacterial strains were incubated at 35–37 °C for 24–48 h, while the inoculated plates of fungal strains such as A. flavus and A. fumigatus were incubated at 25 °C for 48 h and yeast as C. albicans was incubated at 30 °C for 24–48 h.
(§3) The agar disk diffusion (qualitative) method was used in this investigation for determination of the preliminary antibacterial and antifungal activities. The agar used was Mueller-Hinton agar plates that are rigorously tested for composition and pH. Further the depth of the agar in the plate is a factor to be considered in the disk diffusion method.
(§4) Reference drugs: ampicillin was used as a standard antibacterial drug for Gram positive bacteria, gentamicin as a standard antibacterial drug for Gram negative bacteria and amphotericin B as antifungal standard drug.
(§5) Bacterial and fungal strains were spread onto the surface of the agar plates using sterile cotton swabs. For evaluation of antibacterial activities, blank paper disks (Schleicher & Schuell, Alicante, Spain) with a diameter of 8.0 mm were saturated with 10 μL of tested concentration of the stock solutions. Disks were dried and then placed onto inoculated agar plates. The plates of bacterial strains were reincubated at 35–37 °C for 24–48 h, while the plates of fungal strains such as A. flavus and A. fumigatus were reincubated at 25 °C for 48 h and yeast as C. albicans was reincubated at 30 °C for 24–48 h as mentioned above. […] For an accurate analysis, tests were run in triplicate for each strain to avoid any error as described in Table 2.
Disk diffusion method for filamentous fungi testing by using approved standard method (M02-A11) developed by the CLSI for evaluating the susceptibilities of filamentous fungi to antifungal agents. Disk diffusion method for yeasts developed by using approved standard method (M44-A2) by the CLSI [44]. Agar-based methods such as disk diffusion can be good alternatives because they are simpler and faster than broth-based methods.

Bacillus subtilis = assay: Disk diffusion, Bacillus subtilis; type: cell-based; details: Gram positive, 8.0 mm disks, 10 μL
Method: as §1, §2, §3, §4, §5

Pseudomonas aeruginosa = assay: Disk diffusion, Pseudomonas aeruginosa; type: cell-based; details: Gram negative, 8.0 mm disks, 10 μL
Method: as §1, §2, §3, §4, §5

Salmonella typhimurium = assay: Disk diffusion, Salmonella typhimurium; type: cell-based; details: Gram negative, 8.0 mm disks, 10 μL
Method: as §1, §2, §3, §4, §5

[1] = test system: NCI-H460 (non-small cell lung cancer); assay: In vitro cytotoxicity, SRB cell growth assay, NCI-H460; details: Homo sapiens, NCI-H460, 48 h, read-out: IC50 (μg/mL) NCI-H460
Method: The in vitro cytotoxic activity of the newly synthesized compounds against human breast cell line (MCF7), non-small cell lung cancer NCIH460, CNS cancer SF-268 and WI 38 (normal fibroblast cells) were evaluated using doxorubicin as the reference drug according to the method reported by Skehan et al..
The newly synthesized compounds were evaluated in vitro against three human cancer cell lines; which are MCF-7 (breast adenocarcinoma), NCI-H460 (non-small cell lung cancer) and SF-268 (CNS cancer), and WI 38 (normal fibroblast cells) were used in this study. MCF-7 was obtained from the European Collection of Cell Cultures (ECACC, Salisbury, UK) but NCI-H460, SF-268 and WI 38 were kindly provided by the National Cancer Institute (NCI, Cairo, Egypt). They grow as monolayer and routinely maintained RPMI-1640 medium supplemented with 5% heat inactivated fetal bovine serum (FBS), 2 mM glutamine and antibiotics (penicillin 100 U/mL, streptomycin 100 µg/mL), at 37 °C in a humidified atmosphere containing 5% CO2. Exponentially growing cells were obtained by plating 1.5 × 10^5 cells/mL for MCF-7 and SF-268, and 0.75 × 10^4 cells/mL for NCI-H460 followed by 24 h of incubation. The effect of the vehicle solvent (DMSO) on the growth of these cell lines was evaluated in all experiments by exposing untreated control cells to the maximum concentration (0.5%) of DMSO used in each assay.
The effect of compounds on the in vitro growth of human tumor cell lines were evaluated according to the procedure adopted by the National Cancer Institute ([…]) in the “In vitro Anticancer Drug Discovery Screen” that uses the protein-binding dye sulforhodamine B (SRB) to assess cell growth. In the assay protocol, all cells were incubated at 37 °C under humidified atmosphere containing 5% CO2. Briefly, exponentially cells growing in 96-well plates were then exposed for 48 h to five serial concentrations of each compound, starting from a maximum concentration of 150 μg/mL. Following this exposure period adherent cells were fixed, washed and stained. The bound stain was solubilized and the absorbance was measured at 492 nm in a plate reader (Bio-Tek Instruments Inc., Power wave XS, Winston, NC, USA). For each test compound and cell line, a dose response curve was obtained and the inhibitory concentration of 50% (IC50), corresponding to the concentration of the compounds that inhibited 50% of the net cell growth was calculated as described elsewhere. Doxorubicin was used as a positive control and tested in the same manner.

Neisseria gonorrhoeae = assay: Disk diffusion, Neisseria gonorrhoeae; type: cell-based; details: Gram negative, 8.0 mm disks, 10 μL
Method: as §1, §2, §3, §4, §5

Streptococcus faecalis = assay: MIC by broth dilution, Streptococcus faecalis; type: cell-based; details: Enterococcus faecalis, Gram positive, 0.98-125 µg/mL, read-out: Minimum Inhibitory Concentration (MIC) (µg/mL) Streptococcus faecalis
Method: (§6) In this study, MIC (quantitative method) was used for evaluation of the antimicrobial activity of tested compounds. Screening was evaluated in vitro using the Broth dilution method according to CLSI [45]. All the bacteria were incubated and activated at 30 °C for 24 h inoculation into nutrient broth and the fungi were incubated in malt extract broth for 48 h. The compounds were dissolved in DMSO and then diluted using […] Mueller-Hinton broth. […] In each case triplicate tests were performed and the average was taken as the final reading. The tubes were then inoculated with the test organisms, grown in their suitable broth at 37 °C for 24 h for tested microorganisms (1 × 10^8 CFU/mL for bacteria and 1 × 10^6 CFU/mL of fungi), each 5 mL received 0.1 mL of the above inoculum and incubated at 37 °C for 24 h.

Escherichia coli = assay: MIC by broth dilution, Escherichia coli; type: cell-based; details: Escherichia coli, Gram negative, 0.98-125 µg/mL, read-out: Minimum Inhibitory Concentration (MIC) (µg/mL) Escherichia coli
Method: as §6

## NC1=NN(c2nc3ccc(Br)cc3nc2N2N=C(N)CC2=O)C(=O)C1 [Compound 16, 6-Bromo-2,3-bis(3-amino-1H-pyrazol-5(4H)-one)quinoxaline]
Aspergillus fumigatus
  Inhibition Zone Diameter (IZ) (mm) Aspergillus fumigatus: R (R (IZ = 0 mm))
Bacillus subtilis
  Inhibition Zone Diameter (IZ) (mm) Bacillus subtilis: 10 mm
Pseudomonas aeruginosa
  Inhibition Zone Diameter (IZ) (mm) Pseudomonas aeruginosa: 11 mm
Salmonella typhimurium
  Inhibition Zone Diameter (IZ) (mm) Salmonella typhimurium: 10 mm
[1]
  IC50: 22.9 ± 0.46 µg/mL (≈ 56.9 µM)
Neisseria gonorrhoeae
  Inhibition Zone Diameter (IZ) (mm) Neisseria gonorrhoeae: 11 mm
Streptococcus faecalis
  MIC: 31.2 µg/mL (≈ 77.5 µM)
Escherichia coli
  MIC: 3.9 µg/mL (≈ 9.67 µM)

## Cc1cc(C)n(-c2nc3cc(Br)ccc3nc2NN)n1 [Compound 14, 6-Bromo-3-(3,5-dimethyl-1H-pyrazol-1-yl)-2-hydrazinyl quinoxaline]
Aspergillus fumigatus
  Inhibition Zone Diameter (IZ) (mm) Aspergillus fumigatus: R (R (IZ = 0 mm))
Bacillus subtilis
  Inhibition Zone Diameter (IZ) (mm) Bacillus subtilis: 12 mm
Pseudomonas aeruginosa
  Inhibition Zone Diameter (IZ) (mm) Pseudomonas aeruginosa: 12 mm
Salmonella typhimurium
  Inhibition Zone Diameter (IZ) (mm) Salmonella typhimurium: 10 mm
[1]
  IC50: 38.3 ± 2.35 µg/mL (≈ 115 µM)
Neisseria gonorrhoeae
  Inhibition Zone Diameter (IZ) (mm) Neisseria gonorrhoeae: 12 mm
Streptococcus faecalis
  MIC: 1.95 µg/mL (≈ 5.85 µM)
Escherichia coli
  MIC: 3.9 µg/mL (≈ 11.7 µM)

## Brc1ccc2c(c1)n1nnnc1c1nnnn21 [Compound 11, 9-Bromoditetrazolo[1,5-a:5′,1′-c]quinoxaline]
Aspergillus fumigatus
  Inhibition Zone Diameter (IZ) (mm) Aspergillus fumigatus: R (R (IZ = 0 mm))
Bacillus subtilis
  Inhibition Zone Diameter (IZ) (mm) Bacillus subtilis: 19 mm
Pseudomonas aeruginosa
  Inhibition Zone Diameter (IZ) (mm) Pseudomonas aeruginosa: 14 mm
Salmonella typhimurium
  Inhibition Zone Diameter (IZ) (mm) Salmonella typhimurium: 18 mm
[1]
  IC50: 2.83 ± 0.53 µg/mL (≈ 9.72 µM)
Neisseria gonorrhoeae
  Inhibition Zone Diameter (IZ) (mm) Neisseria gonorrhoeae: R (R (IZ = 0 mm))
Streptococcus faecalis
  MIC: 62.5 µg/mL (≈ 215 µM)
Escherichia coli
  MIC: 62.5 µg/mL (≈ 215 µM)

## Brc1ccc2nc(N3CCOCC3)c3nnnn3c2c1 [Compound 5b, 8-Bromo-4-(morpholin-4-yl)tetrazolo[1,5-a]quinoxaline]
Aspergillus fumigatus
  Inhibition Zone Diameter (IZ) (mm) Aspergillus fumigatus: 12 mm
Bacillus subtilis
  Inhibition Zone Diameter (IZ) (mm) Bacillus subtilis: 17 mm
Pseudomonas aeruginosa
  Inhibition Zone Diameter (IZ) (mm) Pseudomonas aeruginosa: 10 mm
Salmonella typhimurium
  Inhibition Zone Diameter (IZ) (mm) Salmonella typhimurium: 13 mm
[1]
  IC50: 0.01 ± 0.002 µg/mL (≈ 0.0298 µM)
Neisseria gonorrhoeae
  Inhibition Zone Diameter (IZ) (mm) Neisseria gonorrhoeae: R (R (IZ = 0 mm))
Streptococcus faecalis
  MIC: 3.9 µg/mL (≈ 11.6 µM)
Escherichia coli
  MIC: 1.95 µg/mL (≈ 5.82 µM)

## NNc1nc2ccc(Br)cc2nc1NN [Compound 9, 6-Bromo-2,3-dihydrazinylquinoxaline]
Aspergillus fumigatus
  Inhibition Zone Diameter (IZ) (mm) Aspergillus fumigatus: 5 mm
Bacillus subtilis
  Inhibition Zone Diameter (IZ) (mm) Bacillus subtilis: 28 mm
Pseudomonas aeruginosa
  Inhibition Zone Diameter (IZ) (mm) Pseudomonas aeruginosa: 31 mm
Salmonella typhimurium
  Inhibition Zone Diameter (IZ) (mm) Salmonella typhimurium: 17 mm
[1]
  IC50: 16.4 ± 2.32 µg/mL (≈ 60.8 µM)
Neisseria gonorrhoeae
  Inhibition Zone Diameter (IZ) (mm) Neisseria gonorrhoeae: 28 mm
Streptococcus faecalis
  MIC: 0.98 µg/mL (≈ 3.64 µM)
Escherichia coli
  MIC: 1.95 µg/mL (≈ 7.25 µM)

## Clc1nc2ccc(Br)cc2n2nnnc12 [Compound 4, 8-Bromo-4-chlorotetrazolo[1,5-a]quinoxaline]
Aspergillus fumigatus
  Inhibition Zone Diameter (IZ) (mm) Aspergillus fumigatus: 10 mm
Bacillus subtilis
  Inhibition Zone Diameter (IZ) (mm) Bacillus subtilis: 20 mm
Pseudomonas aeruginosa
  Inhibition Zone Diameter (IZ) (mm) Pseudomonas aeruginosa: 21 mm
Salmonella typhimurium
  Inhibition Zone Diameter (IZ) (mm) Salmonella typhimurium: 17 mm
[1]
  IC50: 0.01 ± 0.004 µg/mL (≈ 0.0351 µM)
Neisseria gonorrhoeae
  Inhibition Zone Diameter (IZ) (mm) Neisseria gonorrhoeae: 21 mm
Streptococcus faecalis
  MIC: 0.98 µg/mL (≈ 3.44 µM)
Escherichia coli
  MIC: 3.9 µg/mL (≈ 13.7 µM)

## NNc1nc2cc(Br)ccc2nc1Cl [Compound 3, 6-Bromo-2-chloro-3-hydrazinylquinoxaline]
Aspergillus fumigatus
  Inhibition Zone Diameter (IZ) (mm) Aspergillus fumigatus: R (R (IZ = 0 mm))
Bacillus subtilis
  Inhibition Zone Diameter (IZ) (mm) Bacillus subtilis: 15 mm
Pseudomonas aeruginosa
  Inhibition Zone Diameter (IZ) (mm) Pseudomonas aeruginosa: 14 mm
Salmonella typhimurium
  Inhibition Zone Diameter (IZ) (mm) Salmonella typhimurium: 13 mm
[1]
  IC50: 26.7 ± 2.18 µg/mL (≈ 97.8 µM)
Neisseria gonorrhoeae
  Inhibition Zone Diameter (IZ) (mm) Neisseria gonorrhoeae: 14 mm
Streptococcus faecalis
  MIC: 15.6 µg/mL (≈ 57.1 µM)
Escherichia coli
  MIC: 3.9 µg/mL (≈ 14.3 µM)

## Brc1ccc2nc(N3CCCCC3)c3nnnn3c2c1 [Compound 5a, 8-Bromo-4-(piperidin-1-yl)tetrazolo[1,5-a]quinoxaline]
Aspergillus fumigatus
  Inhibition Zone Diameter (IZ) (mm) Aspergillus fumigatus: 12 mm
Bacillus subtilis
  Inhibition Zone Diameter (IZ) (mm) Bacillus subtilis: 13 mm
Pseudomonas aeruginosa
  Inhibition Zone Diameter (IZ) (mm) Pseudomonas aeruginosa: 11 mm
Salmonella typhimurium
  Inhibition Zone Diameter (IZ) (mm) Salmonella typhimurium: 14 mm
[1]
  IC50: 0.02 ± 0.006 µg/mL (≈ 0.06 µM)
Neisseria gonorrhoeae
  Inhibition Zone Diameter (IZ) (mm) Neisseria gonorrhoeae: R (R (IZ = 0 mm))
Streptococcus faecalis
  MIC: 62.5 µg/mL (≈ 188 µM)
Escherichia coli
  MIC: 125 µg/mL (≈ 375 µM)
